Our source for the Ki values is patent US10100022B2, “Sphingosine kinase inhibitors” (University of Virginia Patent Foundation, priority 2014, dated 2018).

Structures can show the parent of a compound that is named as a salt.

Test [1] concerns the target T1, human sphingosine kinase type 1 (hSPHK1) (Homo sapiens, UniProt Q9NYA1).
T1 construct: made in house; host or cells: Sf9 insect cells (baculovirus)
Nature of the test: Sphingosine kinase assay, recombinant human SPHK1 ([32P]S1P product, scintillation counting). The class given is biochemical. The conditions noted are these: read-out: activity hSPHK1 (range estimate of KI). Here is the method: (§1) Recombinant baculovirus encoding human sphingosine kinase type 1 (SPHK1) was used to infect Sf9 insect cells and after 2-5 days, cleared lysates were prepared and used without further purification. Human SPHK2, which was partially purified from baculovirus-infected Sf9 cell lysates, was purchased from a commercial source. Sphingosine kinase assays were performed using standard protocols. Product [^32P]S1P was recovered by binding to cation exchange paper and quantified by scintillation counting.

The target of test [2] is T2, human sphingosine kinase type 2 (hSPHK2) (Homo sapiens, UniProt Q9NRA0).
T2 construct: purchased; host or cells: Sf9 insect cells (baculovirus)
T2 sequence (Q9NRA0 1-654): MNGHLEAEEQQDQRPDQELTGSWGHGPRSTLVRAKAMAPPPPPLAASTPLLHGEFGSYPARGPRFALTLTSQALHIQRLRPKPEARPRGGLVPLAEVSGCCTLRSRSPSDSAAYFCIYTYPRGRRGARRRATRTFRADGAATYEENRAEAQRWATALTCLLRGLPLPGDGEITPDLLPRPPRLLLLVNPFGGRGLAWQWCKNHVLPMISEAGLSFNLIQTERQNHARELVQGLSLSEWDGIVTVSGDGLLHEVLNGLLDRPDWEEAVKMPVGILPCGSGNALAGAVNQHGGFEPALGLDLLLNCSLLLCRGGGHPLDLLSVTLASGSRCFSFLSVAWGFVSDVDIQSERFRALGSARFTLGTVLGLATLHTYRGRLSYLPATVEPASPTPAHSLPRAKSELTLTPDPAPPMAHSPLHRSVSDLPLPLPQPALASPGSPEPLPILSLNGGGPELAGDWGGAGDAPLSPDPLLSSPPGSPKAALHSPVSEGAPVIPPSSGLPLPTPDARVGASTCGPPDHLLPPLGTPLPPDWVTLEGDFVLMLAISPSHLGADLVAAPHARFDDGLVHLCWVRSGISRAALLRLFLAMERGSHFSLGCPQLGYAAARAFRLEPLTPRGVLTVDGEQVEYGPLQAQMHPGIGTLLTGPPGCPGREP
The test can be described thus: Sphingosine kinase assay, recombinant human SPHK2 ([32P]S1P product, scintillation counting). In kind it is biochemical. The following applies: read-out: activity hSPHK2 (range estimate of KI). Here is the method:
as §1

T1 sequence (Q9NYA1 whole entry): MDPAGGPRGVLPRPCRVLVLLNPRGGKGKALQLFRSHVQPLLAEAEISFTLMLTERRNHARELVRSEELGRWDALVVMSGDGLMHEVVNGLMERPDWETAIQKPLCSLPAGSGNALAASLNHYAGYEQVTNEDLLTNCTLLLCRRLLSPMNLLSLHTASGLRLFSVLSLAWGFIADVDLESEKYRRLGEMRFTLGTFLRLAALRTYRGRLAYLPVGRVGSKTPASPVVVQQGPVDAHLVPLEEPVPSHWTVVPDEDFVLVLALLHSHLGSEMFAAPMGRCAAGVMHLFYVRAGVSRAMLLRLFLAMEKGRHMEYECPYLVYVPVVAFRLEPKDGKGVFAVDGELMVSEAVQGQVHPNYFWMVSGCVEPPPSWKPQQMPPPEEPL

In the case of `N=C(N)N1CCC[C@H]1c1nc(-c2ccc(OCCCc3ccc(C(F)(F)F)cc3)c(C(F)(F)F)c2)no1` [Compound 32A, (S)-amino(2-(3-(3-(trifluoromethyl)-4-(3-(4-(trifluoromethyl)phenyl)propoxy)phenyl)-1,2,4-oxadiazol-5-yl)pyrrolidin-1-yl)methaniminium chloride], the values for the Ki in test [1] and in test [2] were over 10 µM and under 1 µM, respectively.
The like results for `N=C(N)N1C[C@H](O)C[C@H]1c1nc(-c2ccc(OCCCc3ccc(C(F)(F)F)cc3)c(C(F)(F)F)c2)no1` [Compound 33A, amino((2S,4R)-4-hydroxy-2-(3-(3-(trifluoromethyl)-4-(3-(4-(trifluoromethyl)phenyl)propoxy)phenyl)-1,2,4-oxadiazol-5-yl)pyrrolidin-1-yl)methaniminium chloride] were, in that order, over 10 µM and under 1 µM.
For `CCCc1ccc(CCc2ccc(-c3noc([C@@H]4[C@@H](O)CCN4C(=N)N)n3)cc2C(F)(F)F)cc1` [Compound 34A, (2S,3S)-3-hydroxy-2-(3-(4-(4-propylphenethyl)-3-(trifluoromethyl)phenyl)-1,2,4-oxadiazol-5-yl)pyrrolidine-1-carboximidamide hydrochloride], in that order: 1 to 10 µM and under 1 µM.
For `CCCc1ccc(CCc2ccc(-c3noc([C@@H]4CCCN4C(=N)N)n3)cc2C(F)(F)F)cc1` [Compound 35A, (S)-2-(3-(4-(4-propylphenethyl)-3-(trifluoromethyl)phenyl)-1,2,4-oxadiazol-5-yl)pyrrolidine-1-carboximidamide hydrochloride], in that order: over 10 µM and under 1 µM.
With `CCCCc1ccc(CCc2ccc(-c3noc([C@@H]4CCCN4C(=N)N)n3)cc2C(F)(F)F)cc1` [Compound 36A, (S)-2-(3-(4-(4-butylphenethyl)-3-(trifluoromethyl)phenyl)-1,2,4-oxadiazol-5-yl)pyrrolidine-1-carboximidamide hydrochloride], the Ki in test [1] was over 10 µM; in test [2] it was under 1 µM.
The like results for `CCCCc1ccc(CCc2ccc(-c3noc([C@@H]4[C@@H](O)CCN4C(=N)N)n3)cc2C(F)(F)F)cc1` [Compound 37A, (2S,3S)-2-(3-(4-(4-butylphenethyl)-3-(trifluoromethyl)phenyl)-1,2,4-oxadiazol-5-yl)-3-hydroxypyrrolidine-1-carboximidamide hydrochloride] were, in that order, 1 to 10 µM and under 1 µM.
The like results for `N=C(N)N1CCC[C@H]1c1nc(-c2ccc(CCC3CC3)c(C(F)(F)F)c2)no1` [Compound 38A, (S)-2-(3-(4-(2-cyclopropylethyl)-3-(trifluoromethyl)phenyl)-1,2,4-oxadiazol-5-yl)pyrrolidine-1-carboximidamide hydrochloride] were, in that order, over 10 µM and 1 to 10 µM.
The like results for `N=C(N)N1CCC[C@H]1c1nc(-c2ccc(CCc3ccc(C(F)(F)F)cc3)c(C(F)(F)F)c2)no1` [Compound 39A, (S)-2-(3-(3-(trifluoromethyl)-4-(4-(trifluoromethyl)phenethyl)phenyl)-1,2,4-oxadiazol-5-yl)pyrrolidine-1-carboximidamide hydrochloride] were, in that order, over 10 µM and under 1 µM.
For `N=C(N)N1CC[C@H](O)[C@H]1c1nc(-c2ccc(CCc3ccc(C(F)(F)F)cc3)c(C(F)(F)F)c2)no1` [Compound 40A, (2S,3S)-3-hydroxy-2-(3-(3-(trifluoromethyl)-4-(4-(trifluoromethyl)phenethyl)phenyl)-1,2,4-oxadiazol-5-yl)pyrrolidine-1-carboximidamide hydrochloride], the Ki was 1 to 10 µM in test [1] and under 1 µM in test [2].
As for `COc1ccc(CCc2ccc(-c3noc([C@@H]4[C@@H](O)CCN4C(=N)N)n3)cc2C(F)(F)F)cc1` [Compound 41A, (2S,3S)-3-hydroxy-2-(3-(4-(4-methoxyphenethyl)-3-(trifluoromethyl)phenyl)-1,2,4-oxadiazol-5-yl)pyrrolidine-1-carboximidamide hydrochloride], the Ki in test [1] is 1 to 10 µM; in test [2], under 1 µM.
`COc1ccc(CCc2ccc(-c3noc([C@@H]4CCCN4C(=N)N)n3)cc2C(F)(F)F)cc1` [Compound 42A, (S)-2-(3-(4-(4-methoxyphenethyl)-3-(trifluoromethyl)phenyl)-1,2,4-oxadiazol-5-yl)pyrrolidine-1-carboximidamide hydrochloride]: the Ki in test [1] is over 10 µM; in test [2] it was under 1 µM.
For `N=C(N)N1CC[C@H](O)[C@H]1c1nc(-c2ccc(CCC3CCCC3)c(C(F)(F)F)c2)no1` [Compound 43A, (2S,3S)-2-(3-(4-(2-cyclopentylethyl)-3-(trifluoromethyl)phenyl)-1,2,4-oxadiazol-5-yl)-3-hydroxypyrrolidine-1-carboximidamide hydrochloride], in that order: 1 to 10 µM and under 1 µM.
For `N=C(N)N1CCC[C@H]1c1nc(-c2ccc(CCC3CCCC3)c(C(F)(F)F)c2)no1` [Compound 44A, (S)-2-(3-(4-(2-cyclopentylethyl)-3-(trifluoromethyl)phenyl)-1,2,4-oxadiazol-5-yl)pyrrolidine-1-carboximidamide hydrochloride], in that order: over 10 µM and 1 to 10 µM.
`N=C(N)N1CCC[C@H]1c1nc(-c2ccc(OCCCCO)c(C(F)(F)F)c2)no1` [Compound 45A, (S)-2-(3-(4-(4-hydroxybutoxy)-3-(trifluoromethyl)phenyl)-1,2,4-oxadiazol-5-yl)pyrrolidine-1-carboximidamide hydrochloride]: the results for the Ki in test [1] and in test [2] were over 10 µM and 1 to 10 µM, respectively.
For `COCCCCOc1ccc(-c2noc([C@@H]3CCCN3C(=N)N)n2)cc1C(F)(F)F` [Compound 46A, (S)-2-(3-(4-(4-methoxybutoxy)-3-(trifluoromethyl)phenyl)-1,2,4-oxadiazol-5-yl)pyrrolidine-1-carboximidamide 2,2,2-trifluoroacetate], in that order: over 10 µM and over 10 µM.
For `C=CCn1c(CCCOc2ccc(-c3noc([C@@H]4[C@@H](O)CCN4C(=N)N)n3)cc2C(F)(F)F)nc2ccccc21` [Compound 47A, ((2S,3S)-2-(3-(4-(3-(1-allyl-1H-benzo[d]imidazol-2-yl)propoxy)-3-(trifluoromethyl)phenyl)-1,2,4-oxadiazol-5-yl)-3-hydroxypyrrolidin-1-yl)(amino)methaniminium chloride], in that order: over 10 µM and 1 to 10 µM.
For `CCCCCCCCOc1ccc(-c2noc([C@@H]3C[C@H](F)CN3C(=N)N)n2)cc1C(F)(F)F` [Compound 48A, (2S,4S)-4-fluoro-2-(3-(4-(octyloxy)-3-(trifluoromethyl)phenyl)-1,2,4-oxadiazol-5-yl)pyrrolidine-1-carboximidamide 2,2,2-trifluoroacetate], in that order: over 10 µM and 1 to 10 µM.
Regarding `CCCCCCCCOc1ccc(-c2noc([C@@H]3C[C@@H](F)CN3C(=N)N)n2)cc1C(F)(F)F` [Compound 49A], the Ki was over 10 µM in test [1] and under 1 µM in test [2].
Take `CCc1ccc(CCc2ccc(-c3noc([C@@H]4CCCN4C(=N)N)n3)cc2C(F)(F)F)cc1` [Compound 50A, (S)-2-(3-(4-(4-ethylphenethyl)-3-(trifluoromethyl)phenyl)-1,2,4-oxadiazol-5-yl)pyrrolidine-1-carboximidamide hydrochloride]: the Ki in test [1] is over 10 µM; in test [2], under 1 µM.
